{"source": "patent US20010025105A1", "about": "“Certain substituted 1-aryl-3-piperazine-1'-yl propanones” (Molecular Geriatarics Corporation, priority 1997, published 2001)", "note": "Where a name gives a salt, the structure may show the parent alone.", "data": [{"test_system": "microtubule cytoskeleton of human CG neuroblastoma cells", "assay": "Antimicrotubule activity, tubulin immunofluorescence microscopy", "assay_type": "cell-based", "details": "2 hr at 37° C., read-out: Concentration where microtubule destabilization occurs", "experimental": "(§1) The compounds of the invention according to formula I are effective in destabilizing microtubules, thus are useful in treating certain neoplastic diseases. Indirect immunofluorescence microscopy using the monoclonal antibodies to tubulin is used herein to determine the activity of the compounds of this invention in promoting depolymerization of the microtubule cytoskeleton in cultured cells. The following assay was employed.\n(§2) Cultured human CG neuroblastoma cells were seeded 1:3 from confluent cultures onto sterile 11×22 mm coverslips in 6 well tissue culture plates 16 hr prior to treatment. The following day, the tissue culture medium is removed and the cells are exposed to various concentrations of compounds of this invention in Krebs Ringer Hepes (KRH) buffer containing a final concentration of 0.5% DMSO as carrier. Incubations were performed at 37° C. in a humidified 5% CO2 atmosphere for 2 hr. After incubation, the cells were fixed in 3% TEM grade formaldehyde in PBS for 45 min at room temperature.\n(§3) To visualize the effects of the compounds of the invention on the microtubule cytoskeleton, the cells were processed for tubulin immunofluorescence. Briefly, the cells were permeabilized in 0.5% Triton-X 100 in PBS for 5 min. The cells were washed 2× with PBS and aldehydes reduced using 0.5 mg/ml NaBH4 in PBS for 5 min. Subsequently, the cells were blocked for 10 min in 1.5% BSA and 1.5% nonfat dry milk in PBS (blocking solution, BS) for 10 min. The cells were then incubated for 30 min at 37° C. with the monoclonal antibody Tu27B which recognizes b-tubulin (dilution 1:20 in BS). Subsequently, the cells were washed 2× in PBS and once in BS. The cells were then incubated for 30 min at 37° C. with sheep antimouse IgG conjugated to FITC. After incubation, the cells were washed 2× in PBS and once in BS and incubated for 30 min at 37° C. with rabbit antisheep IgG conjugated to FITC. The cells were rinsed in PBS, counterstained with Hoechst 33285 in PBS (1 μg/ml), and rinsed in PBS. The coverslips were mounted in 9:1 glycerol:PBS containing 1 mg/ml p-phenylenediamine and sealed with nail polish.\n(§4) The cells were viewed using a Jenalumar epifluorescence microscope equipped with the proper filters for Fluorescein Isothiocyanate (FITC) excitation and emission. Lack of effect of a compound is evidenced by the presence of an intact microtubule network in interphase cells, or a mitotic spindle in dividing cells. Antineoplastic compounds of the invention at effective doses result in the disappearance of microtubules in both interphase and mitotic cells.", "units": {"minimal effective concentration": "µM"}, "values": [{"smiles": "Cl.Cl.O=C(CCN1CCN(Cc2cc(F)ccc2F)CC1)c1ccsc1", "note": "[Example 38, 1-(3″-Thienyl)-3-[4′-(2′″,5′″-difMuorobenzyl)-1′-piperazinyl]-1-propanone dihydrochloride]", "minimal effective concentration": 20}, {"smiles": "Cl.Cl.N#Cc1cccc(C(=O)CCN2CCN(Cc3ccccc3)CC2)c1", "note": "[Example 60, 1-(m-Cyanophenyl)-3-(4′-benzyl-1′-piperazinyl)-1-propanone dihydrochloride]", "minimal effective concentration": 20}, {"smiles": "Cl.Cl.O=C(CCN1CCN(Cc2ccccc2)CC1)c1ccc(C2CCCCC2)cc1", "note": "[Example 27]", "minimal effective concentration": 20}, {"smiles": "Cl.Cl.O=C(CCN1CCN(Cc2ccccc2)CC1)c1conc1-c1ccccc1", "note": "[Example 112, 1-(3″-Phenylisoxazol-4″-yl)-3-(4′-benzyl-1′-piperazinyl)-1-propanone dihydrochloride]", "minimal effective concentration": 20}, {"smiles": "Cl.O=C(CCN1CCN(C(=O)c2c(F)cccc2F)CC1)c1ccccc1F", "note": "[Example 41, 1-(o-Fluorophenyl)-3-[4′-(2″,6″-difluorobenzoyl)1′-piperazinyl]-1-propanone hydrochloride]", "minimal effective concentration": 20}, {"smiles": "Cl.Cl.O=C(CCN1CCN(Cc2ccccc2)CC1)c1cccs1", "note": "[Example 7, 1-(2″-Thienyl)-3-(4′-benzyl-1′-piperazinyl)-1-propanone dihydrochloride]", "minimal effective concentration": 20}, {"smiles": "Cl.Cl.O=C(CCN1CCN(Cc2ccccc2)CC1)c1ccc(Nc2ccc([N+](=O)[O-])cc2[N+](=O)[O-])cc1", "note": "[Example 113]", "minimal effective concentration": 20}]}, {"test_system": "microtubule cytoskeleton of human CG neuroblastoma cells", "assay": "Antimicrotubule activity, tubulin immunofluorescence microscopy", "assay_type": "cell-based", "details": "Neuroblastoma cell, 2 hr at 37° C., read-out: Concentration where microtubule destabilization occurs", "experimental": "as §1, §2, §3, §4", "units": {"minimal effective concentration": "µM"}, "values": [{"smiles": "O=C(CCN1CCN(Cc2ccccc2)CC1)c1ccc2c(c1)CCCC2", "note": "[Example 20, 1-(1″,2″,3″,4″-Tetrahydronaphth-6″-yl)-3-(4′-benzyl-1′-piperazinyl)-1-propanone dihydrochloride]", "minimal effective concentration": 20}, {"smiles": "O=C(CCN1CCN(C(=O)c2ccccc2F)CC1)c1cccs1", "note": "[Example 70, 1-(2″-Thienyl)-3-[4′-(o-fluorobenzoyl)-1′-piperazinyl]-1-propanone hydrochloride]", "minimal effective concentration": 20}, {"smiles": "CC[C@]1(O)C[C@@H]2CN(CCc3c([nH]c4ccccc34)[C@@](C(=O)OC)(c3cc4c(cc3OC)N(C)[C@H]3[C@@](O)(C(=O)OC)[C@H](OC(C)=O)[C@]5(CC)C=CCN6CC[C@]43[C@@H]65)C2)C1", "note": "[vinblastine, reference compound]", "minimal effective concentration": 0.05}, {"smiles": "O=C(CCN1CCN(Cc2ccccc2)CC1)c1ccc(C(=O)CCN2CCN(Cc3ccccc3)CC2)cc1", "note": "[Example 50]", "minimal effective concentration": 20}, {"smiles": "O=C(CCN1CCN(Cc2ccccc2)CC1)c1cc(C(F)(F)F)cc(C(F)(F)F)c1", "note": "[Example 9, 1-[3″,5″-Bis-(trifluoromethyl)phenyl]-3-(4′-benzyl-1′-piperazinyl)-1-propanone dihydrochloride]", "minimal effective concentration": 20}, {"smiles": "O=C(CCN1CCN(Cc2ccccc2)CC1)c1ccc(-c2ccccc2)cc1", "note": "[Example 22, 1-p-Biphenyl-3-(4′-benzyl-1′-piperazinyl)-1-propanone dihydrochloride]", "minimal effective concentration": 20}]}, {"test_system": "not given", "assay": "not given", "details": "not given", "values": [{"smiles": "O=C(CCN1CCN(Cc2ccccc2)CC1)c1ccc2c(c1)OCCO2", "note": "(as salt: hydrochloride) [Example 19, 1-(2″,3″-Dihydro-1″,4″-benzodioxan-6″-yl)-3-(4′-benzyl-1′-piperazinyl)-1-propanone dihydrochloride]", "melting point": "215 °C (dec.)"}, {"smiles": "COc1ccc(C(=O)CCN2CCN(Cc3ccccc3)CC2)c2ccccc12", "note": "(as salt: hydrochloride) [Example 79, 1-(4″-Methoxy-1″-naphthalenyl)-3-(4′-benzyl-1′-piperazinyl)-1-propanone dihydrochloride]", "melting point": "230 °C (dec.)"}, {"smiles": "O=C(CCN1CCN(C(=O)c2sc3ccccc3c2Cl)CC1)c1ccc(Br)s1", "note": "(as salt: hydrochloride) [Example 86, 1-(5″-Bromo-2″-thienyl)-3-[4′-(3′″-chlorobenzo[b]-2′″-thienoyl)-1′-piperazinyl]-1-propanone dihydrochloride]", "melting point": "188 to 189 °C"}, {"smiles": "Cl.Cl.O=C1c2ccccc2SCC1CN1CCN(Cc2ccccc2)CC1", "note": "(centres unmarked)", "melting point": "> 250 °C (dec.)"}, {"smiles": "O=C(CCN1CCN(C(=O)c2ccccc2F)CC1)c1cccs1", "note": "(as salt: hydrochloride) [Example 70, 1-(2″-Thienyl)-3-[4′-(o-fluorobenzoyl)-1′-piperazinyl]-1-propanone hydrochloride]", "melting point": "183 to 184 °C"}, {"smiles": "O=C(CCN1CCN(Cc2ccccc2)CC1)c1ccc(-c2ccccc2)cc1", "note": "(as salt: hydrochloride) [Example 22, 1-p-Biphenyl-3-(4′-benzyl-1′-piperazinyl)-1-propanone dihydrochloride]", "melting point": "225 °C (dec.)"}, {"smiles": "O=C(CCN1CCN(Cc2ccccc2)CC1)c1ccc(Sc2ccccc2)cc1", "note": "(as salt: hydrochloride) [Example 69, 1-p-Phenylthiophenyl-3-(4′-benzyl-1′-piperazinyl)-3-propanone dihydrochlonde]", "melting point": "210 °C (dec.)"}, {"smiles": "O=C(CCN1CCN(Cc2ccccc2)CC1)c1cc(C(F)(F)F)cc(C(F)(F)F)c1", "note": "(as salt: hydrochloride) [Example 9, 1-[3″,5″-Bis-(trifluoromethyl)phenyl]-3-(4′-benzyl-1′-piperazinyl)-1-propanone dihydrochloride]", "melting point": "255 °C"}, {"smiles": "O=C(CCN1CCN(Cc2ccccc2)CC1)c1ccc2c(c1)Cc1ccccc1-2", "note": "(as salt: hydrochloride) [Example 28, 1-(Fluoren-2″-yl)-3-(4′-benzyl-1′-piperazinyl)-1-propanone dihydrochloride]", "melting point": "225 °C (dec.)"}, {"smiles": "O=C(CCN1CCN(Cc2ccccc2)CC1)c1cc2ccccc2o1", "note": "(as salt: hydrochloride) [Example 10, 1-(Benzofur-2″-yl)-3-(4′-benzyl-1′-piperazinyl)-1-propanone dihydrochloride]", "melting point": "255 to 257 °C"}, {"smiles": "Cc1c(C(=O)CCN2CCN(Cc3ccccc3)CC2)sc2ccc(Cl)cc12", "note": "(as salt: hydrochloride) [Example 82, 1-(5″-Chloro-3″-methylbenzo[b]-2″-thienyl)-3-(4′-benzyl-1′-piperazinyl)-1-propanone dihydrochloride]", "melting point": "247 °C (dec.)"}, {"smiles": "O=C(CCN1CCC(Cc2ccccc2)CC1)c1ccc(Br)s1", "note": "(as salt: hydrochloride) [Example 99, 1-(5″-Bromo-2″-thienyl)-3-(4′-benzyl-1′-piperidinyl)-1-propanone hydrochloride]", "melting point": "205 to 208 °C"}, {"smiles": "O=C(CCN1CCN(Cc2ccccc2)CC1)c1ccc2c(c1)-c1ccccc1-2", "note": "[Example 58, 1-(Biphenylen-2″-yl)-3-(4′-benzyl-1′-piperazinyl)-1-propanone]", "melting point": "133 to 134 °C"}, {"smiles": "O=C(CCN1CCN(Cc2ccccc2)CC1)c1ccc(-c2ccccc2)s1", "note": "(as salt: hydrochloride) [Example 56, 1-(5″-Phenyl-2″-thienyl)-3-(4′-benzyl-1′-piperazinyl)-1-propanone dihydrochloride]", "melting point": "224 to 247 °C"}, {"smiles": "O=C(CCN1CCN(C(c2ccccc2)c2ccc(Cl)cc2)CC1)c1cccs1", "note": "(centres unmarked) (as salt: hydrochloride) [Example 89, 1-(2″-Thienyl)-3-[4′-(1′″-p-chlorophenyl-1′″-phenylmethyl)-1′-piperazinyl]-1-propanone dihydrochloride]", "melting point": "189 to 201 °C"}, {"smiles": "O=C(CCN1CCN(Cc2ccccc2)CC1)c1ccc2c(c1)CCCC2", "note": "(as salt: hydrochloride) [Example 20, 1-(1″,2″,3″,4″-Tetrahydronaphth-6″-yl)-3-(4′-benzyl-1′-piperazinyl)-1-propanone dihydrochloride]", "melting point": "200 °C (dec.)"}, {"smiles": "Cc1ccc(C(=O)CCN2CCN(Cc3ccccc3)CC2)o1", "note": "(as salt: hydrochloride) [Example 67, 1-(5″-Methyl-2″-furanyl)-3-(4′-benzyl-1′-piperazinyl)-1-propanone hydrochloride]", "melting point": "213 °C (dec.)"}, {"smiles": "CS(=O)(=O)Nc1ccc(C(=O)CCN2CCN(Cc3ccccc3)CC2)cc1", "note": "(as salt: hydrochloride) [Example 26, 1-[-p-(Methanesulfonamido)phenyl]-3-(4′-benzyl-1′-piperazinyl)-1-propanone dihydrochloride]", "melting point": "202 to 205 °C"}, {"smiles": "O=C(CCN1CCN(Cc2ccccc2)CC1)c1ccc(I)cc1", "note": "(as salt: hydrochloride) [Example 1, 1-(piodophenyl)-3-(4′-benzyl-1′-piperazinyl)-1-propanonedihydrochloride]", "melting point": "224 °C (dec.)"}]}]}
